Experimental data from patent US20050113292A1 (priority 2003, published 2005).

Experiments:
[1] = system: HIV-1 pNLHxB
[2] = system: HIV-1 92UG024.2
[3] = system: T20-resistant virus
[4] = system: NL4-3 (MT-4)
[5] = system: HIV-1 89.6
[6] = system: HIV-1 NL4-3
[7] = system: HIV-1 92HT599.24
[8] = system: T-20 Resistant Virus
[9] = system: HIV-1 92MW965.26
[10] = system: HIV-1 mediated cell-cell fusion (R8 virus); conditions: mediated cell-cell fusion (R8 virus)
[11] = system: R9 HIV-1 virus; type: cell-based; conditions: 0.5 µM
[12] = system: T-tropic (R8) HIV-1; conditions: T-tropic (R8)
[13] = system: M-tropic (BAL) HIV-1; conditions: M-tropic (BAL)
[14] = system: HIV; conditions: human, in vivo; cited from earlier work

| Molecule | IC50 [1] [nM] | IC50 [2] [nM] | IC50 [3] [nM] | IC50 [4] [nM] | IC50 [5] [nM] | IC50 [6] [nM] | IC50 [7] [nM] | IC50 [8] [nM] | Ratio [8] | IC50 [9] [nM] | EC50 [10] [nM] | IC50 [10] [nM] | percentage of inhibition of cell infection [11] [%] | IC50 [12] [nM] | IC50 [13] [nM] | reduction of plasma HIV RNA levels [14] [logs] |
| --- | --- | --- | --- | --- | --- | --- | --- | --- | --- | --- | --- | --- | --- | --- | --- | --- |
| CC[C@H](C)[C@H](NC(=O)[C@H](CC(C)C)NC(=O)[C@H](CO)NC(=O)[C@H](Cc1c[nH]cn1)NC(=O)[C@@H](NC(=O)[C@H](CC(C)C)NC(=O)[C@H](CO)NC(=O)[C@@H](NC(=O)[C@H](Cc1ccc(O)cc1)NC(=O)[C@H](CC(N)=O)NC(=O)[C@H](CC(N)=O)NC(=O)[C@@H](NC(=O)[C@H](CCC(=O)O)NC(=O)[C@H](CCCNC(=N)N)NC(=O)[C@H](CC(=O)O)NC(=O)[C@H](Cc1c[nH]c2ccccc12)NC(=O)[C@H](CCC(=O)O)NC(=O)[C@H](CCSC)NC(=O)[C@H](Cc1c[nH]c2ccccc12)NC(=O)[C@@H]1CSC(C(=O)N[C@@H](CCCCNC(=O)CCCCCNC(=O)CCCCCNC(=O)[C@H](CCCCNC(=O)CCCCCNC(=O)CCCCCNC(=O)CCCCCNC(=O)[C@H](CCCCN)NC(=O)C2N[C@H](C(=O)N[C@@H](Cc3c[nH]c4ccccc34)C(=O)N[C@@H](CCSC)C(=O)N[C@@H](CCC(=O)O)C(=O)N[C@@H](Cc3c[nH]c4ccccc34)C(=O)N[C@@H](CC(=O)O)C(=O)N[C@@H](CCCNC(=N)N)C(=O)N[C@@H](CCC(=O)O)C(=O)N[C@H](C(=O)N[C@@H](CC(N)=O)C(=O)N[C@@H](CC(N)=O)C(=O)N[C@@H](Cc3ccc(O)cc3)C(=O)N[C@H](C(=O)N[C@@H](CO)C(=O)N[C@@H](CC(C)C)C(=O)N[C@H](C(=O)N[C@@H](Cc3c[nH]cn3)C(=O)N[C@@H](CO)C(=O)N[C@@H](CC(C)C)C(=O)N[C@H](C(=O)N[C@@H](CCC(=O)O)C(=O)N[C@@H](CCC(=O)O)C(=O)N[C@@H](CO)C(=O)N[C@@H](CCC(N)=O)C(=O)N[C@@H](CC(N)=O)C(=O)N[C@@H](CCC(N)=O)C(=O)N[C@@H](CCC(N)=O)C(=O)N[C@@H](CCC(=O)O)C(=O)N[C@@H](CCCCN)C(=O)N[C@@H](CC(N)=O)C(=O)N[C@@H](CCC(=O)O)C(=O)N[C@@H](CCC(N)=O)C(=O)N[C@@H](CCC(=O)O)C(=O)N[C@@H](CC(C)C)C(=O)N[C@@H](CC(C)C)C(=O)O)[C@@H](C)CC)[C@@H](C)CC)[C@@H](C)O)[C@@H](C)CC)CS2)NC(=O)C2N[C@H](C(=O)N[C@@H](Cc3c[nH]c4ccccc34)C(=O)N[C@@H](CCSC)C(=O)N[C@@H](CCC(=O)O)C(=O)N[C@@H](Cc3c[nH]c4ccccc34)C(=O)N[C@@H](CC(=O)O)C(=O)N[C@@H](CCCNC(=N)N)C(=O)N[C@@H](CCC(=O)O)C(=O)N[C@H](C(=O)N[C@@H](CC(N)=O)C(=O)N[C@@H](CC(N)=O)C(=O)N[C@@H](Cc3ccc(O)cc3)C(=O)N[C@H](C(=O)N[C@@H](CO)C(=O)N[C@@H](CC(C)C)C(=O)N[C@H](C(=O)N[C@@H](Cc3c[nH]cn3)C(=O)N[C@@H](CO)C(=O)N[C@@H](CC(C)C)C(=O)N[C@H](C(=O)N[C@@H](CCC(=O)O)C(=O)N[C@@H](CCC(=O)O)C(=O)N[C@@H](CO)C(=O)N[C@@H](CCC(N)=O)C(=O)N[C@@H](CC(N)=O)C(=O)N[C@@H](CCC(N)=O)C(=O)N[C@@H](CCC(N)=O)C(=O)N[C@@H](CCC(=O)O)C(=O)N[C@@H](CCCCN)C(=O)N[C@@H](CC(N)=O)C(=O)N[C@@H](CCC(=O)O)C(=O)N[C@@H](CCC(N)=O)C(=O)N[C@@H](CCC(=O)O)C(=O)N[C@@H](CC(C)C)C(=O)N[C@@H](CC(C)C)C(=O)O)[C@@H](C)CC)[C@@H](C)CC)[C@@H](C)O)[C@@H](C)CC)CS2)C(N)=O)N1)[C@@H](C)CC)[C@@H](C)O)[C@@H](C)CC)C(=O)N[C@@H](CCC(=O)O)C(=O)N[C@@H](CCC(=O)O)C(=O)N[C@@H](CO)C(=O)N[C@@H](CCC(N)=O)C(=O)N[C@@H](CC(N)=O)C(=O)N[C@@H](CCC(N)=O)C(=O)N[C@@H](CCC(N)=O)C(=O)N[C@@H](CCC(=O)O)C(=O)N[C@@H](CCCCN)C(=O)N[C@@H](CC(N)=O)C(=O)N[C@@H](CCC(=O)O)C(=O)N[C@@H](CCC(N)=O)C(=O)N[C@@H](CCC(=O)O)C(=O)N[C@@H](CC(C)C)C(=O)N[C@@H](CC(C)C)C(=O)O (stereo partly drawn) [Compound 3α3-C34] | 0.76 | 0.6 | 0.47 | 1.59 | 10.2 | 0.73 | 0.25 | 0.34 | 0.21 | 0.16 |  |  |  |  |  |  |
| enfuvirtide |  |  |  | 4.31 |  |  |  | 32.3 | 7.50 |  | 22.1 | 22.1 | ~100 | 76.4 | 3.9 | ≤ 2 |
